# Data from patent publication US20110082543A1, “Methods and Devices for Preventing or Delaying Posterior Capsule Opacification” (CLEO COSMETIC AND PHARMACEUTICAL COMPANY, LLC, priority 2009, published 2011).
# Legend:
# rabbit LECs = conditions: mechanism unknown; cited from earlier work
# [1] = tested on: lens epithelial cells from bovine anterior capsules; test: Outgrowth of lens epithelial cells from bovine anterior capsules on treated slides; assay type: cell-based
# Protocol: The tension ring is then further treated with glutaraldehyde (GA), rinsed of excess GA, and then treated with an MTX-protein conjugate. […] Control tension rings are treated with unconjugated protein (no MTX).
# Outgrowth was followed for six days.
# [2] = tested on: epithelial cells of the lens capsule; conditions: solution instilled into the anterior chamber after lens removal; cited from earlier work
# [3] = treated slides, outgrowth followed for six days, first evaluation
compound,measurement,setting,value
"O=C(O[C@@H]1Cc2c(O)cc(O)cc2O[C@@H]1c1cc(O)c(O)c(O)c1)c1cc(O)c(O)c(O)c1 [(−)-epigallocatechin-3-gallate (EGCG), (−)-epigallocatechin-3-gallate]",inhibition of proliferation of rabbit LECs,rabbit LECs,inhibit the proliferation
"CN(Cc1cnc2nc(N)nc(N)c2n1)c1ccc(C(=O)N[C@@H](CCC(=O)O)C(=O)O)cc1 [MTX (alone), methotrexate]",outgrowth of lens epithelial cells,[1]; subsequent evaluations after the first evaluation period,not during subsequent evaluations
same,outgrowth of lens epithelial cells,[1]; [3],inhibited outgrowth
same,destroying epithelial cells of the lens capsule which remain after cataract surgery,[2],effective
bovine serum albumin [protein (alone)],outgrowth of lens epithelial cells,[1]; [3],allowed good outgrowth
"covalent conjugate of MTX: covalent conjugate of MTX with bovine serum albumin prepared using ECDI, attached via glutaraldehyde to the ethylenediamine plasma-treated surface",outgrowth of lens epithelial cells,"[1]; slides rinsed and evaluated again, second set of lens capsules",inhibited outgrowth
same,outgrowth of lens epithelial cells,[1]; third set of cells on re-used slides,"somewhat inhibited, but not completely"
same,outgrowth of lens epithelial cells,[1]; [3],inhibited cell outgrowth
